Several values for one entry are separate records, joined by “and”; a condition that tells them apart may be missing. Equal entries are not always repeated.
Test system: Hepatitis B Virus (HBV) in human HBV producer cell line of HepG2, 2.2.15
Conditions: 100 μM compound, 2.2.15 cells
Protocol: Antiviral Activity Against Hepatitis B Virus (HBV)
The human HBV producer cell line of HepG2, 2.2.15, described and characterized by Sells et al., PNAS 84:1005, 1987 and J. Virol. […] This cell line was utilized in vitro to identify compounds with anti-HBV activity.
Supernatant media containing extracellular virion DNA (Dane particles) were harvested on days three, six and ten, treated with proteinase K (1 mg/mL) and sodium dodecyl sulfate (1%), and incubated at 50° C. for one hour. DNA was extracted with equal volumes of phenol followed by chloroform and then precipitated by ammonium acetate and propanol. The DNA precipitate was dissolved and collected on nitrocellulose using the procedure of Schleicher and Schuell (S & S, 10 Optical Ave., Keene, N.H. 03431, Publication No. 700, 1987), and treated as described by Southern, J. Mol. Biol. 98:503, 1975. Cells were harvested, and the intracellular DNA was obtained after cell lysis with guanidine isothiocyanate. The intracellular DNA was handled in the same manner as the extracellular DNA. After precipitation by ammonium acetate and propanol, the intracellular DNA precipitate was dissolved, cut by restriction endonuclease, Hind III, applied to agarose gel and then treated as described by Southern to determine the quantity of replicative intermediate forms.

[1] = analysis 24 hours following the 10th day of treatment, duplicate cultures, experiments A and B

In the case of Nc1nc(=O)n([C@@H]2CS[C@H](CO)O2)cc1F (racemic) [cis-1-(2-(Hydroxymethyl)-1,3-oxathiolan-5-yl)-5-fluoro-cytosine], the “HBV DNA in Culture Medium, Day 0” value (Day 0, zero = undetectable, sensitivity cutoff 0.1 pg/mL) is reported as 90 pg/mL, the “HBV DNA in Culture Medium, Day 10” value (Day 10, zero = undetectable, sensitivity cutoff 0.1 pg/mL) is reported as 0 pg/mL and the “Intracellular HBV DNA, Monomer” value [1] is reported as 0.8 pg/μg cell DNA and 0.7 pg/μg cell DNA. For the same molecule, the “Intracellular HBV DNA, Replicative intermediate” value [1] was 1 pg/μg cell DNA and 2 pg/μg cell DNA.

Reference: US7053100B2, “Therapeutic nucleosides” (priority 1991, dated 2006)
